Results as given in patent US5430062A, “Stilbene derivatives as anticancer agents” (priority 1993, dated 1995).
Values joined by “and” are separate entries in the source; they are usually repeats but may differ in a detail not shown here. Identical values can stand only once. “Also recorded” adds a separate entry of the source. Like-named read-outs stand apart in the source and are kept apart here.

Assays:
A-549 lung carcinoma = assay: MTT cytotoxicity assay, A-549; conditions: Homo sapiens, A549, […]
tubulin [1] = assay: Inhibition of tubulin polymerization (turbidimetry); type: biochemical, bovine; conditions: for increase in IC50 / loss of activity in tubulin polymerization: relative to the parent 5a (8a, 5b) or 8a (12a)
[2] = tested on: HT-29 colon adenocarcinoma; assay: MTT cytotoxicity assay, HT-29; conditions: Homo sapiens, HT-29, […]
MCF-7 breast carcinoma = assay: MTT cytotoxicity assay, MCF-7; conditions: Homo sapiens, MCF7, […]
tubulin [3] = assay: Inhibition of [3H]colchicine binding to tubulin (DEAE-filter); set-up: species or system bovine; conditions: for Colchicine binding % inhibition: 1 μM tubulin, 5 μM [3H]colchicine, 5 μM inhibitor, 10 min, 37° C.
[4] = tested on: five cancer cell cultures; assay: MTT cytotoxicity assay, five cancer cell cultures taken together; conditions: for less cytotoxic than 1a and 5a: relative to 1a and 5a; for cytotoxicity (in words): five cancer cell lines
MLM melanoma = assay: MTT cytotoxicity assay, MLM; conditions: […]
SKMEL-5 melanoma = assay: MTT cytotoxicity assay, SKMEL-5; conditions: Homo sapiens, SK-MEL-5, […], read-out: Cytotoxicity ED50, SKMEL-5
OVCAR-3 ovarian cancer = assay: Cytotoxicity, OVCAR-3; conditions: read-out: cytotoxicity GI50, OVCAR-3; 50% growth inhibition; average of two determinations; 8640 min
[5] = tested on: DMS 273 small cell lung cancer; assay: Cytotoxicity, DMS 273; conditions: read-out: cytotoxicity GI50, DMS 273; 50% growth inhibition; average of two determinations; 8640 min
CAKI-1 renal cancer = assay: Cytotoxicity, CAKI-1; conditions: read-out: cytotoxicity GI50, CAKI-1; 50% growth inhibition; average of two determinations; 8640 min
M14 melanoma = assay: Cytotoxicity, M14; conditions: read-out: cytotoxicity GI50, M14; 50% growth inhibition; average of two determinations; 8640 min
SF-295 CNS cancer = assay: Cytotoxicity, SF-295; conditions: read-out: cytotoxicity GI50, SF-295; 50% growth inhibition; average of two determinations; 8640 min
HL-60 (TB) leukemia = assay: Cytotoxicity, HL-60(TB) leukemia; conditions: read-out: cytotoxicity GI50, HL-60(TB); 50% growth inhibition; average of two determinations; 8640 min
[6] = read-out: Cytotoxicity ED50, A-549
[7] = first series (Table VIII and text), 37° C., 20 min, read-out: Tubulin polymerization IC50 (±S.D.)
[8] = read-out: Cytotoxicity ED50, HT-29
[9] = read-out: Cytotoxicity ED50, MCF-7
[10] = read-out: Cytotoxicity ED50, MLM
[11] = Table X, different glutamate preparation (1M monosodium glutamate and GTP), read-out: inhibn of tubulin polymn IC50 (±SD)
[12] = read-out: Cytotoxicity ED50, A-549, A-549, MTT, six days
[13] = read-out: Cytotoxicity ED50, MCF-7, MCF-7, MTT, six days
[14] = read-out: Cytotoxicity ED50, MLM, MLM, MTT, six days
[15] = read-out: cytotoxicity ED50, five cancer cell lines
[16] = read-out: cytotoxicity ED50, in at least three cell lines

Compound	IC50 (A-549 lung carcinoma; [6]) [nM]	inhibition of tubulin polymerization (in words) (tubulin [1])	IC50 (tubulin [1]; [7])	IC50 [2, 8] [nM]	IC50 (MCF-7 breast carcinoma; [9]) [nM]	Colchicine binding % inhibition (tubulin [3]) [%]	IC50 (MLM melanoma; [10]) [nM]	IC50 (SKMEL-5 melanoma) [nM]	cytotoxicity (in words) [4]	other results
COc1cc(/C=C\c2ccc(Cl)cc2)cc(OC)c1OC [5g, (Z)-1-(4-Chlorophenyl)-2-(3,4,5-trimethoxyphenyl)ethene]	80	strong inhibitors of tubulin polymerization; also recorded: active as inhibitors of tubulin polymerization; also recorded: small reductions	4800 nM	50	180	55	170	10	–	IC50 ([4]; read-out: cytotoxicity ED50): < 100 nM; less cytotoxic than 1a and 5a [4]: about 1000 -fold
COc1cc(/C=C\c2ccc(Br)cc2)cc(OC)c1OC [5h, (Z)-1-(4-Bromophenyl)-2-(3,4,5-trimethoxyphenyl)ethene]	11	strong inhibitors of tubulin polymerization; also recorded: active as inhibitors of tubulin polymerization; also recorded: small reductions	3100 nM	8.2	16	73	14	6.7	–	IC50 ([4]; read-out: cytotoxicity ED50): < 100 nM; less cytotoxic than 1a and 5a [4]: about 1000 -fold
CCc1ccc(N=Cc2cc(OC)c(OC)c(OC)c2)cc1 [108b, 4-Ethyl-N-(3,4,5-trimethoxybenzylidene)aniline]	–	–	–	–	–	–	–	–	–	GI50 (OVCAR-3 ovarian cancer): > 100000 nM; GI50 [5]: > 100000 nM; IC50 (tubulin [1]; [11]): > 40000 nM; GI50 (CAKI-1 renal cancer): > 100000 nM; GI50 (M14 melanoma): > 100000 nM; GI50 (SF-295 CNS cancer): > 100000 nM
COc1ccc(N=Cc2cc(OC)c(OC)c(OC)c2)cc1 [108c, 4-Methoxy-N-(3,4,5-trimethoxybenzylidene)aniline]	–	–	–	–	–	–	–	–	–	GI50 (OVCAR-3 ovarian cancer): > 100000 nM; GI50 [5]: 33000 nM; IC50 (tubulin [1]; [11]): > 40000 nM; GI50 (CAKI-1 renal cancer): > 100000 nM
CCOc1ccc(N=Cc2cc(OC)c(OC)c(OC)c2)cc1 [108d, 4-Ethoxy-N-(3,4,5-trimethoxybenzylidene)aniline]	–	–	–	–	–	–	–	–	–	GI50 (OVCAR-3 ovarian cancer): > 100000 nM; GI50 [5]: > 100000 nM; IC50 (tubulin [1]; [11]): > 40000 nM; GI50 (CAKI-1 renal cancer): > 100000 nM; GI50 (M14 melanoma): > 100000 nM; GI50 (HL-60 (TB) leukemia): > 100000 nM; GI50 (SF-295 CNS cancer): > 100000 nM
COc1cc([C@@H]2c3cc4c(cc3[C@H](O)[C@H]3COC(=O)[C@H]23)OCO4)cc(OC)c1OC [Podophyllotoxin, reference compound]	–	–	[…]	–	–	88	–	–	–	IC50 (tubulin [1]; Table X footnote b, different glutamate preparation, read-out: tubulin polymerization IC50, standard agents): […]
COc1ccc(CCc2cc(OC)c(OC)c(OC)c2)cc1O [compound 1c, reference compound]	10	–	3300 nM	8.1	330	79	10	2.1	–	inhibition of colchicine binding (in words) (tubulin [3]): inhibit the binding of radiolabeled colchicine to tubulin
COc1cccc(/C=C\c2cc(OC)c(OC)c(OC)c2)c1 [compound 5b, (Z)-1-(3-Methoxyphenyl)-2-(3,4,5-trimethoxy-phenyl)ethene]	–	strong inhibitors of tubulin polymerization; also recorded: active as inhibitors of tubulin polymerization	8800 nM	–	–	50	–	60	decreased the activity drastically	IC50 (A-549 lung carcinoma; [12]): 130 nM; increase in IC50 / loss of activity in tubulin polymerization (tubulin [1]): 4 -fold; IC50 ([2]; read-out: Cytotoxicity ED50, HT-29, HT-29, MTT, six days): 90 nM; IC50 (MCF-7 breast carcinoma; [13]): 140 nM; IC50 ([4]; read-out: cytotoxicity ED50): < 1000 nM; IC50 (MLM melanoma; [14]): 1400 nM
COc1ccc(/C=C\c2cc(OC)c(OC)c(OC)c2)c(Cl)c1 [compound 5e]	–	strong inhibitors of tubulin polymerization; also recorded: active as inhibitors of tubulin polymerization; also recorded: small reductions	3500 nM	–	–	73	–	17	decreased the cytotoxicity	IC50 (A-549 lung carcinoma; [12]): 51 nM; IC50 (MCF-7 breast carcinoma; [13]): 46 nM; less cytotoxic than 1a and 5a [4]: about 1000 -fold; IC50 (MLM melanoma; [14]): 140 nM
COc1cc(/C=C\c2ccccc2)cc(OC)c1OC [compound 5f, (Z)-1-Phenyl-2-(3,4,5-trimethoxyphenyl)ethene]	170	–	36000 nM	84	250	14	> 25000	120	decreased the activity drastically	–
COc1cc(/C=C\c2ccc(N(C)C)cc2)cc(OC)c1OC [compound 5n, (Z)-1-[4-(N,N-Dimethylamino)phenyl)-2-(3,4,5-trimethoxyphenyl)ethene]	4.1	strong inhibitors of tubulin polymerization; also recorded: small reductions	3400 nM and 3500 nM	8.1	5.8	83	9.4	0.15	–	IC50 [4, 15]: < 100 nM; IC50 [4, 16]: < 1000 nM
COc1cc(/C=C\c2ccc(OC(C)=O)cc2)cc(OC)c1OC [compound 5p, (Z)-1-(4-Acetoxyphenyl)-2-(3,4,5-trimethoxyphenyl)ethene]	1700	–	29000 nM	6000	300	24	6300	600	decreased the activity drastically	–
COc1ccc(CCc2cc(OC)c(OC)c(OC)c2)cc1 [compound 8a, 1-(4-Methoxyphenyl)-2-(3,4,5-trimethoxyphenyl)ethane]	0.18	strong inhibitors of tubulin polymerization	7900 nM	0.25	0.16	65	0.18	0.14	more cytotoxic than dihydrocombretastatin A-4 (1c) in all five cancer cell lines	increase in IC50 / loss of activity in tubulin polymerization (tubulin [1]): ~4 -fold; IC50 [4, 15]: ~0.2 nM; IC50 [4, 16]: < 1000 nM
COc1cc(CCc2ccc(N(C)C)cc2)cc(OC)c1OC [compound 8n, 1-[4-(Dimethylamino)phenyl]-2-(3,4,5-trimethoxyphenyl)ethane]	83	only modest inhibitory effects on tubulin polymerization	29000 nM	77	64	31	120	59	–	IC50 [4, 16]: < 1000 nM
COc1ccc(NCc2cc(OC)c(OC)c(OC)c2)cc1 [compound 12a, 3,4,5-Trimethoxy-N-(4-methoxyphenyl)benzylamine]	1.9	only modest inhibitory effects on tubulin polymerization	23000 nM	1	2.4	34	1.6	0.7	only an order of magnitude less cytotoxic than 8a	increase in IC50 / loss of activity in tubulin polymerization (tubulin [1]): 3 -fold; IC50 [4, 15]: ~1 nM; IC50 [4, 16]: < 1000 nM
COc1ccc(NCc2cc(OC)cc(OC)c2)cc1 [compound 12d]	5710	–	29000 nM	17800	6080	39	> 25000	2410	–	–
